Our source for the IC50 values is BindingDB's records for doi:10.1021/jm00098a005 (Pfizer, 1992).

A word on the IC50: it is the concentration that gives 50% inhibition. Low values mean greater potency, high ones weaker potency.

Assay [1] is described as follows: Compound was evaluated for binding affinity towards 5-hydroxytryptamine 1C receptor in pig choroid plexus using [3H]mesulergine as radioligand.
Assay [2] can be described thus: Compound was evaluated for binding affinity towards 5-hydroxytryptamine 1D receptor in bovine caudate using [3H]- serotonin as radioligand.

`CN(C)CCc1c[nH]c2cc3c(cc12)OCCC3` displayed an IC50 in assay [1] of 2500 nM. This lies in the single-digit micromolar range.

Take `CN(C)CCc1c[nH]c2ccc3c(c12)CCCO3`: the results for the IC50 in assay [1] and in assay [2] were 150 nM and 220 nM, respectively.

With `CN(C)CCc1cn(C)c2ccc3c(c12)CCCO3`, the figures for the IC50 in assay [1] and in assay [2] were 100 nM and 9300 nM, respectively.

In the case of `Cn1cc(CCN)c2c3c(ccc21)OCCC3`, the IC50 in assay [1] was determined as 100 nM; in assay [2], 4200 nM.

Take `NCCc1c[nH]c2ccc3c(c12)CCCO3`: the values for the IC50 in assay [1] and in assay [2] were 41 nM and 110 nM, respectively.
